Assay results taken from PubChem BioAssay AID2305 (GlaxoSmithKline (GSK), 2010).

tested on: P. falciparum 3D7 growth, pLDH absorbance; assay: blood-stage malaria parasite growth potency – strain 3D7, dose response (AID 2305)

| Structure (SMILES) | IC50 [nM] |
| --- | --- |
| CCCCCCC(N)c1ccc(OCCCOc2ccc(C(N)CCCCCC)cc2)cc1 (stereo unspecified) | 1140 |
| COc1cc(OC)cc(C(=O)Nc2cccc(-c3cn4ccc(C)cc4n3)c2)c1 | 990 |
| CCCCN(CCCC)C(=N)c1cccc2c1CCCC2 | 1560 |
| Cc1cc(N(C)C)nc(Nc2ccc(NC(=O)c3ccc(F)cc3)cc2)n1 | 710 |
| O=C(Nc1ccc(Cn2ncc(N3CCCNCC3)c(Cl)c2=O)cc1)Nc1cccc(C(F)(F)F)c1 | 640 |
| CC(C)N(Cc1ccc(-c2ccc(C(F)(F)F)cc2)cc1)C(=O)Cn1c(SCc2cccc(F)c2F)cc(=O)c2cc(CN3CCCCC3)ccc21 | 870 |
| Cc1cc(NC(=O)NCCN2CCC(NS(=O)(=O)c3ccccc3Cl)C2)c2ccccc2n1 (stereo unspecified) | 820 |
| Cc1cc(=O)c(-c2ccc(Oc3cccc(OC(F)(F)F)c3)cc2)c(C)[nH]1 | 200 |
| COc1cc(CCNC(=O)Cc2ccc3ccccc3c2)ccc1OCc1ccccc1 | 1020 |
| O=c1cc(NCCCNCc2ccc(C(F)(F)F)c(F)c2)[nH]c2ccccc12 | 1190 |
| COCCOc1ccc(Nc2nccc(-c3c(-c4cccc(NC(=O)c5c(F)cccc5F)c4)nn4ccccc34)n2)cc1Cl | 360 |
| Cc1ccnc(NC(c2ccc(Cl)c([N+](=O)[O-])c2)c2ccc3cccnc3c2O)c1 (stereo unspecified) | 930 |
| CCCCc1ccc2[nH]cc(C3=CCN(C)CC3)c2c1Br | 630 |
| CCC(C(=O)Nc1ccccc1)n1nc(-c2ccc(C)c(S(=O)(=O)N3CCCCC3)c2)ccc1=O (stereo unspecified) | 1090 |
| CCc1c[nH]c2c(N(c3ccccc3)S(C)(=O)=O)cc(C(=O)N[C@@H](Cc3ccccc3)[C@H](O)CNCc3cccc(C(F)(F)F)c3)cc12 | 1000 |
| c1ccc2[nH]c(-c3ccc(-c4ccc(CN5CCN(c6ccncc6)CC5)cc4)s3)nc2c1 | 200 |
| Cc1cc(N)c2cc(NC(=O)c3cc4ccccc4s3)ccc2n1 | 110 |
| COc1ccc2ncc(F)c(CCN3CCC[C@H](CNCc4ccc5c(n4)NC(=O)CS5)C3)c2n1 | 970 |
| C[C@@H]1CN(c2ccc3occ(C(=O)Nc4ccc(-c5ccncc5)c(Cl)c4)c3c2)C[C@H](C)N1C | 850 |
| CCc1c(CCNCCCCCCNCCc2ccc(Br)cc2)ccc(OC)c1OC | 230 |
| Cc1ccc(-c2nc(Nc3ccncc3)c3ccccc3n2)s1 | 830 |
| Cc1[nH]c(C)c(-c2ccc(OCc3cc(F)cc(F)c3)nc2)c(=O)c1Br | 100 |
| O=C(/C=C/c1ccccc1Cl)Nc1ccc(Br)c(OCCN2CCN(CCN3CCOCC3)CC2)c1 | 760 |
| Oc1ccc(CCCNc2nc(NCc3cccc4ccccc34)nc(NC3CCNCC3)n2)cc1 | 1130 |

| Structure (SMILES) | IC50 [nM] |
| --- | --- |
| CCc1nnc2sc(-c3cccc(NC(=O)c4ccc(C)c([N+](=O)[O-])c4)c3)nn12 | 1410 |
| CCNS(=O)(=O)c1ccc(Oc2ccc([N+](=O)[O-])cc2)cc1 | 170 |
| COc1cc(Nc2nccc(N3CCC(NC(=O)Nc4cccc(C(C)=O)c4)C3)n2)cc(OC)c1OC (stereo unspecified) | 970 |
| CCN(CC)CCN(Cc1ccc(-c2ccc(C(F)(F)F)cc2)cc1)C(=O)Cn1cc(CCCCc2cccc(F)c2F)c(=O)c2ccccc21 | 880 |
| COc1cccc(OC2CCN(C(=O)c3ccc(-c4ccc(N5CCCC5=O)cc4C)cc3)CC2)c1 | 1010 |
| Cc1ccc(NC(=O)c2ccc(N3CCN(c4ccncc4)CC3)cn2)cc1F | 1570 |
| Cc1cc(C(F)(F)F)nn1-c1ccc(NC(=O)c2ccco2)cc1 | 730 |
| COc1cc2nc(N3CCC(CNC(=O)c4ccc(OC(F)(F)F)cc4)CC3)nc(N)c2cc1OC | 220 |
| O=C(/C=C/c1ccc(Cl)c(Cl)c1)NCCCCCCN1CCN(C(=O)Nc2cc(Cl)nc(Cl)c2)CC1 | 780 |
| Brc1ccsc1-c1nc(NCCC(c2ccccc2)c2ccccc2)no1 | 1080 |
| OC(CNc1ccnc(Nc2cccc(Cl)c2)n1)c1cccc(C(F)(F)F)c1 (stereo unspecified) | 510 |
| Cc1cccc(CN2CCCN(Cc3ccc(C(=O)Nc4ccc(C(C)(C)C)cc4)cc3)CC2)c1 | 730 |
| CC(=O)CSC(C=Cc1ccc(N(C)C)cc1)=Nc1ccccc1 | 1120 |
| C=CCN1C(=O)C(=Cc2cc(Br)ccc2O)SC1=Nc1ccccc1 | 900 |
| O=C(Nc1ccc(Cl)cc1)c1cccc(CN2CCCN(Cc3cccc(O)c3)CC2)c1 | 960 |
| Cc1cc(N(C)C)nc(Nc2ccc(NC(=O)c3ccc(Br)o3)cc2)n1 | 1050 |
| O=C(N[C@@H](Cc1ccccc1)[C@H](O)CNC1CCCCC1)c1cc(C2CCCC2)cc(N2CCCC2=O)c1 | 170 |
| O=C(C=Cc1ccc(Cl)c(Cl)c1)NCCCCCN1CCC(c2[nH]nc3ccccc23)CC1 | 640 |
| COc1ccc(Cc2c(C)nc3nc(N)nc(N)c3c2C)cc1OC | 910 |
| O=C(Nc1ccc(OC2CCN(Cc3ccccc3)C2)c(Cl)c1)c1ccco1 (stereo unspecified) | 410 |
| Cc1noc(-c2ccc3c(c2)CCN(CCC2CCC(NC(=O)c4cc5ccccc5[nH]4)CC2)CC3)n1 (stereo unspecified) | 690 |
| CC(C)c1ccc2oc(-c3ccc(NC(=O)c4ccc([N+](=O)[O-])o4)cc3)nc2c1 | 340 |
| COc1cc2c(cc1OC)CN(CCCCc1ccc(NC(=O)c3cc(Cl)cc(Cl)c3)cc1)CC2 | 1200 |
| Cc1cc(CNCCCCCCCNCc2ccc(Cl)cc2)ccc1O | 980 |

| Structure (SMILES) | IC50 [nM] |
| --- | --- |
| CCCc1ccc(Cc2cnc3nc(N)nc(N)c3c2C)cc1 | 280 |
| CCCCC(=O)Nc1nc2ccc([N+](=O)[O-])cc2s1 | 760 |
| COc1ccc2c(c1)CC(CNC[C@H](O)c1cccc(Cl)c1)CC2 (stereo partly specified) | 990 |
| CCC(C)c1cnc2nc(N)nc(N)c2c1C (stereo unspecified) | 440 |
| COCCNCc1cccc(-c2ccc3c(Nc4cc(O)c(Cl)cc4F)ccnc3c2)c1 | 110 |
| Cc1cc(C(=O)CN2C(=O)NC3(CCOc4ccccc43)C2=O)c(C)n1Cc1ccco1 (stereo unspecified) | 610 |
| COc1ccccc1C1CCN(C2CCC(NC(=O)/C=C/c3cc(C(F)(F)F)cc(C(F)(F)F)c3)CC2)CC1 (stereo unspecified) | 1200 |
| COc1cc(Cc2cnc(N)nc2N)ccc1OCC(=O)Nc1ccc(C)cc1 | 480 |
| c1cc(-c2ccc(CNC3CC3)cc2)cc(-c2nc3ccccc3[nH]2)c1 | 1660 |
| CCC(=O)N1CCc2cc(Br)cc(S(=O)(=O)N3CC(C)CC(C)C3)c21 (stereo unspecified) | 930 |
| CC(=O)Nc1ccc(S(=O)(=O)NC2=NC(C)(C)N(OCc3ccc(Cl)c(Cl)c3)C(N)=N2)cc1 | 30 |
| COc1ccc(Nc2ncc(Cl)c(Nc3cccnc3C(N)=O)n2)cc1N1CCN(C)CC1 | 230 |
| Cc1nnsc1C(=O)Nc1ccc(-c2cccc(-c3nc4ccc(F)cc4[nH]3)c2)cc1 | 770 |
| COc1ccc(-n2ncc(C(=O)N3CCC4(C3)C(=O)N(c3ccccc3)c3ccccc34)c2C)cc1 (stereo unspecified) | 930 |
| O=C(NCc1cccc(F)c1)Nc1cccc(-c2ccc(-c3nc4ccc(F)cc4[nH]3)cc2)c1 | 1050 |
| CCCCCCN1CCCN(Cc2ccc(C(=O)Nc3ccc(C(C)(C)C)cc3)cc2)CC1 | 740 |
| CC(C)(C)NCCN(Cc1ccc(-c2ccc(C(F)(F)F)cc2)cc1)C(=O)Cn1c(CCc2cccc(F)c2F)nc(=O)c2ccccc21 | 760 |
| CCCCCCCCCc1c(C)[nH]c2ccccc2c1=O | 160 |
| CS(=O)(=O)CCNCc1cccc(-c2cc3c(Nc4ccc(OCc5ccccc5)cc4)ncnc3cn2)c1 | 730 |
| COc1ccc(CN(C)CCCOc2ccc(NC(=O)c3cccc4c(=O)c5cccc(F)c5[nH]c34)cc2)cc1OC | 640 |
| CN(C)CCNCc1cccc(-c2cccc(-c3nc4ccccc4[nH]3)c2)c1 | 770 |
| Oc1ccc(CN2CCC(NCc3cccc(C(F)(F)F)c3)CC2)cc1 | 680 |
| Cc1ccc2nc(/C=C/c3cccc4cc[nH]c34)[nH]c2c1 | 1180 |
